{
  "source": "paper PMC12032770",
  "about": "(Journal of Experimental & Clinical Cancer Research : CR, 2025)",
  "origin": "cited, not measured here",
  "tested_on": "αvβ3 and αvβ5 integrin receptors",
  "conditions": "at low doses",
  "description": "The αvβ3 and αvβ5 integrin receptors are strongly overexpressed on proangiogenic endothelial cells, including those that form tumor-associated blood vessels in GBM, and inhibitors targeting these integrins, such as the cyclic peptide cilengitide (CIL), act as anti-angiogenic agents.",
  "data": [
    {"substance": "cilengitide", "values": [
      {"measurement": "effect on tumor vasculature", "result": "vascular normalization"}
    ]}
  ]
}
